Consider seven molecules from ChEMBL document CHEMBL4382265, “(Pyrrolo-pyridin-5-yl)benzamides: BBB permeable monoamine oxidase B inhibitors with neuroprotective effect on cortical neurons” (Eur J Med Chem, 2019).

The term pKi denotes the Ki on a negative log10 scale, so that one unit is a factor of ten. Broadly, the Papp is a coefficient for how fast a substance crosses the barrier. What is called logD is lipophilicity at a set pH, counting ionised and neutral species. For orientation: pIC50 means the negative decadic logarithm of the IC50, by convention in mol/L.

pIC50, pKi: −log10 of the molar value. Converted amounts (≈) assume the structure as drawn. The source made the active and inactive calls. The rule behind the calls is not given here.

The species entered for one series is Homo sapiens. As to the kind of experiment: Selectivity index, ratio of IC50 for human recombinant MAO-A expressed in baculovirus infected BTI-TN-5B1-4 insect cells to IC50 for human recombinant MAO-B expressed in baculovirus infected BTI-TN-5B1-4 insect cells.
Settings: not given
For `O=C(Nc1ccc2[nH]ccc2n1)c1ccc(F)c(F)c1`, the Ratio IC50 was > 217.

Another series has as its target T1, Amine oxidase [flavin-containing] B (Homo sapiens, UniProt P27338).
T1 sequence (P27338 whole entry): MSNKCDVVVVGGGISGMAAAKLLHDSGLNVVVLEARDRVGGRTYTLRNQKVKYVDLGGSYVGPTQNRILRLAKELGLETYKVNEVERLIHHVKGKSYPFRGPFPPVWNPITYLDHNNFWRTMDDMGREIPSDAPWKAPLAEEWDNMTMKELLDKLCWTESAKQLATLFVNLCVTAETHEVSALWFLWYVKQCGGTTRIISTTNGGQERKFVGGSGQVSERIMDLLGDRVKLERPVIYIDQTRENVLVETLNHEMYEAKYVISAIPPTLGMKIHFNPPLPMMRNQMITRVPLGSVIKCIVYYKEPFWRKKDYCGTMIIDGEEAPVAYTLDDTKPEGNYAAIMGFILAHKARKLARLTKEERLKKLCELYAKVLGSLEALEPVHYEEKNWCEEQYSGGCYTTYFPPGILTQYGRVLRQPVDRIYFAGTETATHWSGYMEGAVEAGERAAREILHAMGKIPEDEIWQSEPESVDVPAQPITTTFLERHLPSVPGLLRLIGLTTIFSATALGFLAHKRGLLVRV
As to the kind of experiment: Inhibition of human recombinant MAO-B expressed in baculovirus infected BTI-TN-5B1-4 insect cells using p-tyramine as substrate preincubated for 15 mins and measured after 45 mins by Cheng-Prusoff equation analysis.
Settings: not given
For `O=C(Cc1ccc(Cl)c(Cl)c1)Nc1ccc2[nH]ccc2c1`, the pKi was 6.41.
In the case of `O=C(Nc1ccc2[nH]ncc2c1)c1ccc(Cl)c(Cl)c1`, the pKi is 8.26.
Same read-out and setting: the figure for `O=C(Nc1ccc2[nH]ncc2c1)c1cccc(Cl)c1Cl` is 5.94.
As for `O=C(Nc1ccc2[nH]ncc2c1)c1c(F)cccc1Cl`, the pKi was 5.84.
For `O=C(Nc1ccc2[nH]ccc2n1)c1ccc(F)c(F)c1`, the pKi was 7.69.

Tested on in the next series: not listed separately
As to the kind of experiment: Selectivity ratio of IC50 for Sprague-Dawley rat liver MAO-B to human recombinant MAO-B expressed in baculovirus infected BTI-TN-5B1-4 insect cells.
Settings: not given
With `O=C(Nc1ccc2[nH]ccc2n1)c1ccc(F)c(F)c1`, the Ratio IC50 stood at 1.1.

Tested on in another series: not listed separately
Kind of series: Kinetic aqueous solubility of compound at 500 uM at pH 5.5 after 90 mins by UV-vis spectrophotometric analysis. The note with it: buffer, pH 5.5, 1.5 h, 500 µM. In kind it is physicochemical.
In the case of `O=C(Nc1ccc2[nH]ccc2n1)c1ccc(Cl)c(Cl)c1`, the “log(Kinetic_solubility)” value is listed as -4.37.

Still in this series, the particulars now being: buffer, pH 5.5; read-out: Kinetic_solubility.
As to `O=C(Nc1ccc2[nH]ccc2n1)c1ccc(Cl)c(Cl)c1`, the solubility kinetic at 1.5 h, 500 µM amounted to 42.9 µM (≈ 13.1 µg/mL).

Tested on in the next series: not listed separately
As to the kind of experiment: Kinetic aqueous solubility of compound at 500 uM at pH 2 after 90 mins by UV-vis spectrophotometric analysis. In kind it is physicochemical. As to conditions: buffer, pH 2, 1.5 h, 500 µM.
For `O=C(Nc1ccc2[nH]ccc2n1)c1ccc(Cl)c(Cl)c1`, the “log(Kinetic_solubility)” value is recorded as -3.33.

Staying with this series, now noted: buffer, pH 2; read-out: Kinetic_solubility.
With `O=C(Nc1ccc2[nH]ccc2n1)c1ccc(Cl)c(Cl)c1`, the solubility kinetic at 1.5 h, 500 µM is 471 µM (≈ 144 µg/mL).

For a further series, the system named is Cortical neurone. As to the kind of experiment: Neuroprotective activity in rat primary cortical neurons at 0.1 to 1 nM after 120 hrs. Format: functional, cell-based.
Settings: not given
As for `O=C(Nc1ccc2[nH]ccc2n1)c1ccc(Cl)c(Cl)c1`, the outcome was Active.

In the next series the test system is Cortical neurone. As to the kind of experiment: Neuroprotective activity in rat primary cortical neurons assessed as increase in survival at 1 nM after 120 hrs relative to untreated control. In kind it is functional.
Settings: not given
For `O=C(Nc1ccc2[nH]ccc2n1)c1ccc(Cl)c(Cl)c1`, the Efficacy is given as 31%.

A further series has as its system Cortical neurone. Kind of series: Neuroprotective activity in rat primary cortical neurons assessed as increase in survival at 100 nM after 120 hrs relative to untreated control. Format: functional.
Settings: not given
As to `O=C(Nc1ccc2[nH]ccc2n1)c1ccc(Cl)c(Cl)c1`, the Efficacy is reported as 11%.

In the next series the test system is Cortical neurone. Kind of series: Neuroprotective activity in rat primary cortical neurons assessed as induction of neurite network outgrowth at 1 to 10 pM after 120 hrs. In kind it is functional, cell-based.
Settings: not given
In the case of `O=C(Nc1ccc2[nH]ccc2n1)c1ccc(Cl)c(Cl)c1`, the outcome was Active.

A further series deals with Cortical neurone. Kind of series: Neuroprotective activity in rat primary cortical neurons assessed as induction of neurite network outgrowth at 10 to 100 nM after 120 hrs. Format: functional, cell-based.
Settings: not given
Take `O=C(Nc1ccc2[nH]ccc2n1)c1ccc(Cl)c(Cl)c1`: the result was inactive.

The subject of the next series is Cortical neurone. Kind of series: Neuroprotective activity in rat primary cortical neurons neurovascular unit model assessed as increase in survival at 1 pM to 10 nM after 120 hrs in presence of HBMEC relative to untreated control. Format: functional, cell-based.
Settings: not given
Take `O=C(Nc1ccc2[nH]ccc2n1)c1ccc(Cl)c(Cl)c1`: the result was Active.

Another series has as its system Cortical neurone. As to the kind of experiment: Neuroprotective activity in rat primary cortical neurons neurovascular unit model assessed as induction of neurite network outgrowth at 1 pM to 10 nM after 120 hrs in presence of HBMEC relative to untreated control. Format: functional, cell-based.
Settings: not given
As to `O=C(Nc1ccc2[nH]ccc2n1)c1ccc(Cl)c(Cl)c1`, the result was Active.

The subject of another series is Cortical neurone. As to the kind of experiment: Neuroprotective activity in rat primary cortical neurons neurovascular unit model assessed as increase in survival at 150 to 300 nM after 120 hrs in presence of HBMEC relative to untreated control.
Settings: not given
Format: functional, cell-based.
For the molecule `C[C@]12CC[C@@H]3c4ccc(O)cc4CC[C@H]3[C@@H]1CC[C@@H]2O`, the outcome was Active.

Another series deals with Cortical neurone. As to the kind of experiment: Neuroprotective activity in rat primary cortical neurons neurovascular unit model assessed as induction of neurite network outgrowth at 150 to 300 nM after 120 hrs in presence of HBMEC relative to untreated control. Format: functional, cell-based.
Settings: not given
In the case of `C[C@]12CC[C@@H]3c4ccc(O)cc4CC[C@H]3[C@@H]1CC[C@@H]2O`, the outcome was Active.

Tested on in another series: not given
Assay: not given
The note with it: pampa, pH 7.4, 4 h, 10000 µM.
`O=C(Nc1ccc2[nH]ccc2n1)c1ccc(Cl)c(Cl)c1`: the “log(permeability)” value is -3.97.

Tested on in another series: not given
Assay: not given
As to conditions: buffer, pH 7.4, 1.5 h, 500 µM.
As to `O=C(Nc1ccc2[nH]ccc2n1)c1ccc(Cl)c(Cl)c1`, the “log(Kinetic_solubility)” value is given as -4.4.

Tested on in the next series: not listed separately
Kind of series: in vitro. Further details: dose or concentration left out as unconfirmed. As to conditions: PAMPA, pH 7.4.
Description: Effective permeability of the compound in prisma HT buffer at 10 mM at pH 7.4 after 4 hrs by PAMPA
With `O=C(Nc1ccc2[nH]ccc2n1)c1ccc(Cl)c(Cl)c1`, the Papp at 4 h was determined as 1070 nm/s.

Tested on in a further series: not listed separately
As to the kind of experiment: physchem. As to conditions: n-octanol/water, pH 7.4.
On to `O=C(Nc1ccc2[nH]ccc2n1)c1ccc(Cl)c(Cl)c1`, for which the log distribution coefficient (logD) at 1.5 h stood at 3.19.

Tested on in the next series: not listed separately
Kind of series: physchem. As to conditions: buffer, pH 7.4.
With `O=C(Nc1ccc2[nH]ccc2n1)c1ccc(Cl)c(Cl)c1`, the solubility kinetic at 1.5 h, 500 µM stood at 39.8 µM (≈ 12.2 µg/mL).

Another series concerns the target T2, Amine oxidase [flavin-containing] A (Homo sapiens, UniProt P21397).
T2 sequence (P21397 whole entry): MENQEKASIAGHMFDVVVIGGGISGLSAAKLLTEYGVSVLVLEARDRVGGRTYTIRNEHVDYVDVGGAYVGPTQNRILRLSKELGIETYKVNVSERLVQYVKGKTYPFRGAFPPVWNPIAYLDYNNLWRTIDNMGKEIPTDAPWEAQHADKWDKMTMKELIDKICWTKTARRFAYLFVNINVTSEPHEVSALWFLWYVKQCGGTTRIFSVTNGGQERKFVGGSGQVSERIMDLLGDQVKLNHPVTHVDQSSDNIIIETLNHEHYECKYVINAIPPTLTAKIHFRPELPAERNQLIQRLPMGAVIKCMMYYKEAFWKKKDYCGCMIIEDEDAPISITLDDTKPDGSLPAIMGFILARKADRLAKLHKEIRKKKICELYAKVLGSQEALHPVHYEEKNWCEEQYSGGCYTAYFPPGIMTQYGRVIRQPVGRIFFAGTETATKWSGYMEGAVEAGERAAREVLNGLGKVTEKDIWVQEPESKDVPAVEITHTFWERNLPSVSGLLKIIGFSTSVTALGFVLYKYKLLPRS
As to the kind of experiment: biochemical.
Settings: not given
On to `O=C(Nc1ccc2[nH]ccc2n1)c1ccc(Cl)c(Cl)c1`, for which the pIC50 was < 5.00.
In the case of `O=C(Nc1ccc2[nH]ccc2n1)c1ccc(F)c(F)c1`, the negative logarithm of the IC50 (pIC50) is < 5.00.
